In ChEMBL document CHEMBL1201862, “PubChem BioAssay data set” (2004):
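Interpolation was linear, between the two tested concentrations surrounding the appropriate level; five concentrations were tested over 48 hours in 96-well plates. GI50 is the concentration that inhibits growth by half.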 Activity calls are given as the source filed them. Cut-off read from the data, not from the text of the source: active = GI50 up to about 1.1 µM and inactive = higher.

Columns and labels:
Assay in all cases: inhibition of tumour cell growth, NCI panel, 48 h
[1] = test system: SR
[2] = test system: NCI-H460
[3] = test system: NCI-H226
[4] = test system: TK-10
[5] = test system: DU-145
[6] = test system: U-251
[7] = test system: MCF7
[8] = test system: CCRF-CEM
[9] = test system: SK-MEL-5
[10] = test system: SF-268
[11] = test system: NCI-H522
[12] = test system: NCI/ADR-RES
[13] = test system: HCC 2998
[14] = test system: UO-31
[15] = test system: A498
[16] = test system: OVCAR-3
[17] = test system: UACC-257
[18] = test system: T47D
[19] = test system: HT-29
[20] = test system: Hs-578T
[21] = test system: MOLT-4
[22] = test system: K562
[23] = test system: ACHN
[24] = test system: RPMI-8226
[25] = test system: MDA-N
[26] = test system: 786-0
[27] = test system: SF-539
[28] = test system: OVCAR-8
[29] = test system: OVCAR-4
[30] = test system: HCT-116
[31] = test system: Malme-3M
[32] = test system: SK-MEL-2
[33] = test system: UACC-62
[34] = test system: SNB-75
[35] = test system: BT-549
[36] = test system: RXF 393
[37] = test system: HL-60
[38] = test system: M14
[39] = test system: COLO 205
[40] = test system: OVCAR-5
[41] = test system: SK-OV-3
[42] = test system: MDA-MB-435
[43] = test system: A549
[44] = test system: HOP-62
[45] = test system: SN12C
[46] = test system: IGROV-1
[47] = test system: PC-3
[48] = test system: SF-295
[49] = test system: NCI-H23
[50] = test system: EKVX
[51] = test system: SK-MEL-28
[52] = test system: KM12
[53] = test system: MDA-MB-231
[54] = test system: CAKI-1
[55] = test system: HOP-92
[56] = test system: HCT-15
[57] = test system: SW-620
[58] = test system: SNB-19
[59] = test system: LOX IMVI

For `CC(C)(CCc1nc2ccccc2[nH]1)C(=O)O`, the GI50 [1] was > 100 µM (inactive), the GI50 [2] was > 100 µM (inactive) and the GI50 [3] was > 100 µM (inactive). The GI50 [4] was > 100 µM (inactive), the GI50 [5] was > 100 µM (inactive) and the GI50 [6] was > 100 µM (inactive). For the same compound, the GI50 [7] was > 100 µM (inactive), the GI50 [8] was > 100 µM (inactive) and the GI50 [9] was > 100 µM (inactive). For the same compound, the GI50 [10] was > 100 µM (inactive), the GI50 [11] was > 100 µM (inactive) and the GI50 [12] was > 100 µM (inactive). For the same compound, the GI50 [13] was > 100 µM (inactive), the GI50 [14] was > 100 µM (inactive) and the GI50 [15] was > 49.2 µM (inactive). The GI50 [16] was > 100 µM (inactive), the GI50 [17] was > 100 µM (inactive) and the GI50 [18] was > 100 µM (inactive). For the same compound, the GI50 [19] was > 100 µM (inactive), the GI50 [20] was > 100 µM (inactive) and the GI50 [21] was > 100 µM (inactive). The GI50 [22] was > 28 µM (inactive), the GI50 [23] was > 100 µM (inactive) and the GI50 [24] was > 100 µM (inactive). The GI50 [25] was > 100 µM (inactive), the GI50 [26] was > 100 µM (inactive) and the GI50 [27] was > 100 µM (inactive). For the same compound, the GI50 [28] was > 100 µM (inactive), the GI50 [29] was > 100 µM (inactive) and the GI50 [30] was > 100 µM (inactive). For the same compound, the GI50 [31] was > 100 µM (inactive), the GI50 [32] was > 100 µM (inactive) and the GI50 [33] was > 100 µM (inactive). The GI50 [34] was > 100 µM (inactive), the GI50 [35] was > 100 µM (inactive) and the GI50 [36] was > 100 µM (inactive). For the same compound, the GI50 [37] was > 100 µM (inactive), the GI50 [38] was > 100 µM (inactive) and the GI50 [39] was > 100 µM (inactive). The GI50 [40] was > 100 µM (inactive), the GI50 [41] was > 100 µM (inactive) and the GI50 [42] was > 100 µM (inactive). For the same compound, the GI50 [43] was > 100 µM (inactive), the GI50 [44] was > 100 µM (inactive) and the GI50 [45] was > 100 µM (inactive). For the same compound, the GI50 [46] was > 100 µM (inactive), the GI50 [47] was > 100 µM (inactive) and the GI50 [48] was > 100 µM (inactive). For the same compound, the GI50 [49] was > 100 µM (inactive), the GI50 [50] was > 100 µM (inactive) and the GI50 [51] was > 100 µM (inactive). The GI50 [52] was > 100 µM (inactive), the GI50 [53] was > 100 µM (inactive) and the GI50 [54] was > 100 µM (inactive). The GI50 [55] was > 100 µM (inactive), the GI50 [56] was > 100 µM and the GI50 [57] was > 100 µM (inactive). The GI50 [58] was > 100 µM (inactive) and the GI50 [59] was > 100 µM (inactive).
